# Test results: patent US6589970B2, “6-(aryl-amido or aryl-amidomethyl)-naphthalen-2-yloxy-acidic derivatives as inhibitors of plasminogen activator inhibitor type-1 (PAI-1)” (Wyeth, priority 2001, dated 2003)
# Legend:
# [1] = target: T1, recombinant human plasminogen activator inhibitor-1 (PAI-1) (Homo sapiens, UniProt P05121); assay: Modification of the Primary Screen for the PAI-1 Inhibition (IC50); assay type: biochemical
# T1 construct: purchased Molecular Innovations, Royal Oak, Mich
# Experimental: Test compounds are dissolved in DMSO at a final concentration of 10 mM, then diluted 100× in physiologic buffer. The inhibitory assay is initiated by the addition of the test compound (1-100 μM final concentration, maximum DMSO concentration of 0.2%) in a pH 6.6 buffer containing 140 nM recombinant human plasminogen activator inhibitor-1 (PAI-1; Molecular Innovations, Royal Oak, Mich.). Following a 1 hour incubation at room temperature, 70 nM of recombinant human tissue plasminogen activator (tPA) is added, and the combination of the test compound, PAI-1 and tPA is incubated for an additional 30 minutes. Following the second incubation, Spectrozyme-tPA (American Diagnostica, Greenwich, Conn.), a chromogenic substrate for tPA, is added and absorbance read at 405 nm at 0 and 60 minutes. Relative PAI-1 inhibition is equal to the residual tPA activity in the presence of the test compound and PAI-1. Control treatments include the complete inhibition of tPA by PAI-1 at the molar ratio employed (2:1), and the absence of any effect of the test compound on tPA alone.
# human PAI-1 = human PAI-1 (Homo sapiens, UniProt P05121); assay: Assay for Determining IC50 of Inhibition of PAI-1 (Antibody Assay); assay type: biochemical; conditions: active PAI-1 bound to tPA-coated plate
# Experimental: This assay is based upon the non-SDS dissociable interaction between tPA and active PAI-1. Assay plates are initially coated with human tPA (10 μg/ml). The test compounds are dissolved in DMSO at 10 mM, then diluted with physiologic buffer (pH 7.5) to a final concentration of 1-50 μM. The test compounds are incubated with human PAI-1 (50 ng/ml) for 15 minutes at room temperature. The tPA-coated plate is washed with a solution of 0.05% Tween 20 and 0.1% BSA, then the plate is blocked with a solution of 3% BSA. An aliquot of the test compound/PAI-1 solution is then added to the tPA-coated plate, incubated at room temperature for 1 hour, and washed. Active PAI-1 bound to the plate is assessed by adding an aliquot of a 1:1000 dilution of the 33B8 monoclonal antibody against human PAI-1, and incubating the plate at room temperature for 1 hour (Molecular Innovations, Royal Oak, Mich. The plate is again washed, and a solution of goat anti-mouse IgG-alkaline phosphatase conjugate is added at a 1:50,000 dilution in goat serum. The plate is incubated 30 minutes at room temperature, washed, and a solution of alkaline phosphatase substrate is added. The plate is incubated 45 minutes at room temperature, and color development is determined at OD405nm. The quantitation of active PAI-1 bound to tPA at varying concentrations of the test compound is used to determine the IC50. Results are analyzed using a logarithmic best-fit equation. The assay sensitivity is 5 ng/ml of human PAI-1 as determined from a standard curve ranging from 0-100 ng/ml.
# [2] = target: T1, recombinant human plasminogen activator inhibitor-1 (PAI-1); assay: Primary Screen for the PAI-1 Inhibition; assay type: biochemical; conditions: for inhibition at 25 µM: 25 μM test compound, read-out: % Inhib. 25 μM; for inhibition at 100 µM: 100 μM test compound, read-out: % Inhib. 100 μM
# Outline: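 Compound (1-100 μM final, ≤0.2% DMSO) was preincubated for 1 h at room temperature with 140 nM recombinant human PAI-1 at pH 6.6. tPA was then added at 70 nM for 30 min. Residual tPA activity was measured with Spectrozyme-tPA (A405 at 0 and 60 min) and taken as relative PAI-1 inhibition.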
# T1 sequence (P05121 24-402): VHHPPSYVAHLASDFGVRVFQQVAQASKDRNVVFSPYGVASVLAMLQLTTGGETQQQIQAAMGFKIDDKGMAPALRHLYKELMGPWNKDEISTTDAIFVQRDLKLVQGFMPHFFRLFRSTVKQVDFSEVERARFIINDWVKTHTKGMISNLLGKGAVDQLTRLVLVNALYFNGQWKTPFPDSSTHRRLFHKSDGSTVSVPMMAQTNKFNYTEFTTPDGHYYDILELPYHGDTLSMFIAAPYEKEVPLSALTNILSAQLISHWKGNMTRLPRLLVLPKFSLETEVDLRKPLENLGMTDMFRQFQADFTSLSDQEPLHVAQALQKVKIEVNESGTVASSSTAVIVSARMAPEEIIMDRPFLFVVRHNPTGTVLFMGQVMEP
# human PAI-1, sequence (P05121 24-402): as above
SMILES,IC50 [1],IC50 (human PAI-1),inhibition at 25 µM [2],inhibition at 100 µM [2],melting point
"CCCCc1oc2ccccc2c1C(=O)Nc1ccc2c(Br)c(OC(Cc3ccccc3)C(=O)O)ccc2c1 (centres unmarked) [Example 7, 2-{1-Bromo-6-[(2-butyl-benzofuran-3-carbonyl)-amino]-naphthalen-2-yloxy}-3-phenyl-propionic acid]",7.8 µM,16.6 µM,64%,83%,–
"CCCCc1oc2ccccc2c1C(=O)NCc1ccc2c(Br)c(OCc3nnn[nH]3)ccc2c1.[Na] [Example 17, 2-Butyl-benzofuran-3-carboxylic acid [5-bromo-6-(1H-tetrazol-5-ylmethoxy)-naphthalen-2-ylmethyl]-amide sodium salt]",1.4 µM,16.1 µM,–,80%,214 to 215 °C
"CCCCc1oc2ccccc2c1C(=O)NCc1ccc2c(-c3ccccc3)c(OCc3nnn[nH]3)ccc2c1 [Example 24, 2-Butyl-benzofuran-3-carboxylic acid [5-phenyl-6-(1H-tetrazol-5-ylmethoxy)-naphthalen-2-ylmethyl]-amide]",9.94 µM,16.8 µM,25%,72%,192 to 196 °C
"CCCCc1oc2ccccc2c1C(=O)N(C)Cc1ccc2c(Br)c(OCc3nnn[nH]3)ccc2c1 [Example 31, 2-Butyl-benzofuran-3-carboxylic acid [5-bromo-6-(1H-tetrazol-5-ylmethoxy)-naphthalen-2-ylmethyl]-methyl-amide]",15.6 µM,8.47 µM,62%,95%,190 to 194 °C
"CCCCc1oc2ccccc2c1C(=O)N(Cc1ccccc1)Cc1ccc2c(Br)c(OCc3nnn[nH]3)ccc2c1 [Example 48, 2-Butyl-benzofuran-3-carboxylic acid benzyl-[5-bromo-6-(1H-tetrazol-5-ylmethoxy)-naphthalen-2-ylmethyl]-amide]",20.9 µM,17.5 µM,48%,85%,–
"CCCCc1oc2ccccc2c1C(=O)N(CCCC)Cc1ccc2c(Br)c(OCc3nnn[nH]3)ccc2c1 [Example 51, 2-Butyl-benzofuran-3-carboxylic acid [5-bromo-6-(1H-tetrazol-5-ylmethoxy)-naphthalen-2-ylmethyl]-butyl-amide]",6.9 µM,18.7 µM,69%,91%,–
"O=C(NCc1ccc2c(Br)c(OC(Cc3ccccc3)C(=O)O)ccc2c1)c1ccc(Oc2cc(Cl)cc(Cl)c2)o1 (centres unmarked) [Example 53, 2-[1-Bromo-6-({[5-(3,5-dichloro-phenoxy)-furan-2-carbonyl]-amino}-methyl)-naphthalen-2-yloxy]-3-phenyl-propionic acid]",8.7 µM,8.12 µM,35%,86%,86 to 100 °C
O=C(NCc1ccc2c(Br)c(OC(Cc3ccccc3)C(=O)O)ccc2c1)c1ccc(C2CCCCC2)cc1 (centres unmarked) [Example 55],11.8 µM,16.8 µM,35%,60%,–
